Structures can show the parent of a compound that is named as a salt. A value given as a limit tells only on which side of the number the result lay.

One experiment concerns the target hiNOS (Homo sapiens, UniProt P35228). The experiment can be described thus: Citrulline assay for nitric oxide synthase, human in vitro enzyme data, hiNOS. It is filed as biochemical. The settings on record: human inducible NOS.
The next experiment has as its target hncNOS (Homo sapiens, UniProt P29475). The experiment can be described thus: Citrulline assay for nitric oxide synthase, human in vitro enzyme data, hncNOS. Type of experiment: biochemical. The following applies: human neuronal constitutive NOS.
For the next experiment, the target named is hecNOS (Homo sapiens, UniProt P29474). The experiment can be described thus: Citrulline assay for nitric oxide synthase, human in vitro enzyme data, hecNOS. The following applies: human endothelial constitutive NOS. It is filed as biochemical.
The test system of experiment [1] is plasma nitrites induced by endotoxin (LPS). In words: Low Dose LPS in vivo low-endotoxin assay (plasma nitrites). The following applies: mouse.

One may read the IC50 as the concentration at which inhibition is half-maximal. Low readings indicate greater potency, high ones weaker potency. `Cc1noc(=O)n1CCCC[C@H](NC(=O)OC(C)(C)C)C(=O)O` [Example 1, αS-[[(1,1-dimethylethoxy)carbonyl]amino]-4,5-dihydro-3-methyl-5-oxo-1,2,4-oxadiazole-4-hexanoic acid]: the IC50 against hiNOS, at hncNOS and on hecNOS was above 1000 µM each time.

For the compound `CCOC(=O)[C@@H](N)CCCCn1c(C)noc1=O` [Example 3, ethyl αS-amino-4,5-dihydro-3-methyl-5-oxo-1,2,4-oxadiazole-4-hexanoate, monohydrochloride], the IC50 came to 124 µM on hiNOS, 200 µM on hncNOS and 1430 µM on hecNOS.

As to `Cc1noc(=O)n1CCCCC(N)C(=O)O` (centres unmarked) [Example 2, αS-amino-4,5-dihydro-3-methyl-5-oxo-1,2,4-oxadiazole-4-hexanoic acid, monohydrochloride], the results for the “Low Dose LPS in vivo Effective Dose (p.o.), inhibition” value in experiment [1] (3 mg/kg/day p.o.) and in experiment [1] (10 mg/kg/day p.o.) were 39% inh and 42% inh, respectively.

The record behind these values is patent US6344473B1, “Imidazoles useful as nitric oxide synthase inhibitors” (G.D. Searle & Co., priority 2000, dated 2002).
